Data as given in patent US20250215029A1 (Recludix Pharma, Inc., priority 2022, published 2025).
Like-named read-outs stand apart in the source and are kept apart here.

Tests used:
pY641-STAT6 in PBMC = molecular target: T1, pY641-STAT6 in PBMC (Homo sapiens, UniProt P42226); assay: MSD-pSTAT-PBMC Assay (pSTAT6, IL-4 stimulated); assay type: cell-based; conditions: compound 3 hrs, then 1 ng/mL IL-4 for 10 min
T1 construct: Cryopreserved Peripheral Blood Mononuclear Cells (PBMC) are from AllCells; host or cells: cryopreserved PBMC
T1 sequence (P42226 1-847): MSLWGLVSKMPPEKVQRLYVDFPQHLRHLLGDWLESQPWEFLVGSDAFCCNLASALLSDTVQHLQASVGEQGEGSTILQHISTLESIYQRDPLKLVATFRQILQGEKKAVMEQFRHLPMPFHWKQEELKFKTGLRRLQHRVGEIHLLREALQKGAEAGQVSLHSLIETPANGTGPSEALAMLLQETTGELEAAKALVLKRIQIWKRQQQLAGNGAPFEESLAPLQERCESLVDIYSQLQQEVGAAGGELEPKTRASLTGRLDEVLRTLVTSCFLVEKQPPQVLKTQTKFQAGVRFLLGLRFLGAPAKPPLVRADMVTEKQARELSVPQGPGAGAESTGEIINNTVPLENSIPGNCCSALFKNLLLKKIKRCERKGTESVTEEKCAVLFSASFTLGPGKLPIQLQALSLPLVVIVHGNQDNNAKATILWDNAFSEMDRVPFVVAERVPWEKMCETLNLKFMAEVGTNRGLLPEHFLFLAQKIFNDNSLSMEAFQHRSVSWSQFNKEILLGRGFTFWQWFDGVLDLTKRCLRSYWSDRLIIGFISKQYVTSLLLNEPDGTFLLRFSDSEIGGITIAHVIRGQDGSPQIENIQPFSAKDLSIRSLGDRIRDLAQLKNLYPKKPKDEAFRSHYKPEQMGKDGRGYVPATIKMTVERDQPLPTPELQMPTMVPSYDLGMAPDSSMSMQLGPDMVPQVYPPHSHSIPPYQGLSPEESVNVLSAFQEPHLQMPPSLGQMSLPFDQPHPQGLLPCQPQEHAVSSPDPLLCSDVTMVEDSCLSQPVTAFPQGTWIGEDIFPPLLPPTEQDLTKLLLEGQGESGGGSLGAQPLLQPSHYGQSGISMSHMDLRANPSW
Procedure, shortened: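 Thawed human PBMC rested overnight in IMDM/10% FBS, then got compound for 3 hrs before a 10 min cytokine pulse: 1 ng/mL IL-4 for pSTAT6, 10 ng/mL IL-6 for pSTAT3. Lysates went to MSD sandwich capture on total STAT6 or STAT3 with phospho-specific detection. IC50 came from background-subtracted, DMSO-normalized signal.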

pY705-STAT3 in PBMC = molecular target: T2, pY705-STAT3 in PBMC (Homo sapiens, UniProt P40763); assay: MSD-pSTAT-PBMC Assay (pSTAT3, IL-6 stimulated); assay type: cell-based; conditions: compound 3 hrs, then 10 ng/mL IL-6 for 10 min
T2 construct: Cryopreserved Peripheral Blood Mononuclear Cells (PBMC) are from AllCells; host or cells: cryopreserved PBMC
Procedure, shortened: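 MSD electrochemiluminescence read-out: total STAT captured, probed with anti-pY641-STAT6 or anti-pY705-STAT3. Human PBMC, 3 h compound pretreatment, 10 min stimulation (IL-4 1 ng/mL or IL-6 10 ng/mL). Unstimulated signal subtracted, DMSO-normalized, variable-slope IC50.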

[1] = PBMC, Table 115, read-out: STAT3
[2] = PBMC, Table 1114, read-out: pSTAT3
[3] = PBMC, Table 115, read-out: STAT6
[4] = PBMC, Table 1114, read-out: pSTAT6

T2 sequence (P40763 whole entry): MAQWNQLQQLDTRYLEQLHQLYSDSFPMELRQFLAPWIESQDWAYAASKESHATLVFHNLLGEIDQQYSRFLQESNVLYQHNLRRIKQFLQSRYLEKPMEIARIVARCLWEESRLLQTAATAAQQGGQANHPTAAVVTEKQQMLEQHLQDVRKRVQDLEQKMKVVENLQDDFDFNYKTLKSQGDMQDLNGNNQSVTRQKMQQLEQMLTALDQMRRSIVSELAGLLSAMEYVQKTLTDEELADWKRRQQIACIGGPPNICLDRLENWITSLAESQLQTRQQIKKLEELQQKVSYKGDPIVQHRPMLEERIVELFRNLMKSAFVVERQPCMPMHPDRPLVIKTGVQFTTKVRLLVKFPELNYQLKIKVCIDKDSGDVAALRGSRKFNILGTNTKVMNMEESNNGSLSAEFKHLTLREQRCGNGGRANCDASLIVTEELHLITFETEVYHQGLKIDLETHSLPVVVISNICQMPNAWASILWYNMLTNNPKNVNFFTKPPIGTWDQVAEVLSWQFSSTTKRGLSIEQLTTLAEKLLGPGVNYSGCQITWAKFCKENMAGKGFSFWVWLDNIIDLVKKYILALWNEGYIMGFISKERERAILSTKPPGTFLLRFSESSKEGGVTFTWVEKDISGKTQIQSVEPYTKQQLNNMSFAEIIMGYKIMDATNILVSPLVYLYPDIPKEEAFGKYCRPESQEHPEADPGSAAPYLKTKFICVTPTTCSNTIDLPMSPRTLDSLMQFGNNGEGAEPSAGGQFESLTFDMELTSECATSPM

Row | Compound | IC50 (pY705-STAT3 in PBMC; [1]) | IC50 (pY641-STAT6 in PBMC; pSTAT6, PBMC, Table 1114) | IC50 (pY705-STAT3 in PBMC; [2]) | IC50 (pY641-STAT6 in PBMC; [4]) | further results
1 | CCCOC(=O)[C@H](C)NP(=O)(Oc1ccccc1)C(F)(F)c1ccc2ccc(C(=O)N[C@H]3CCCC[C@H]4CC[C@@H](C(=O)N5C[C@H](c6cc[nH]c(=O)c6)CC56CC6)N4C3=O)cc2c1 (stereo partly drawn) [Compound 419, propyl ((difluoro(7-(((3S,6S,10aS)-5-oxo-3-((S)-6-(2-oxo-1,2-dihydropyridin-4-yl)-4-azaspiro[2.4]heptane-4-carbonyl)decahydropyrrolo[1,2-a]azocin-6-yl)carbamoyl)naphthalen-2-yl)methyl)(phenoxy)phosphoryl)-L-alaninate] | > 3000 nM | – | – | – | IC50 (pY641-STAT6 in PBMC; STAT6, PBMC, Table 115): 100 to 1000 nM
2 | CCCC(=O)SCCOP(=O)(Oc1ccccc1)C(F)(F)c1ccc2sc(C(=O)N[C@H]3CCCC[C@H]4CC[C@@H](C(=O)N5C[C@H](c6ccccc6)[C@@H](C#N)C5)N4C3=O)cc2c1 (single isomer, unassigned) [Compound 128, S-(2-((((2-(((3S,6S,10aS)-3-((3R,4S or 3S,4R)-3-cyano-4-phenylpyrrolidine-1-carbonyl)-5-oxodecahydro-pyrrolo[1,2-a]azocin-6-yl)carbamoyl)benzo[b]thiophen-5-yl)difluoromethyl) (phenoxy)phosphoryl)oxy)ethyl) butanethioate] | – | 100 to 1000 nM | > 3000 nM | – | –
3 | CC(C)CC(=O)SCCOP(=O)(OCOC(=O)O[C@@H]1CCOC1)C(F)(F)c1ccc2sc(C(=O)N[C@H]3CCCC[C@H]4CC[C@@H](C(=O)N5C[C@H](c6cc[nH]c(=O)c6)[C@@H](C#N)C5)N4C3=O)cc2c1 (single isomer, unassigned) [Compound 1094] | 1000 to 3000 nM | – | – | – | IC50 (pY641-STAT6 in PBMC; [3]): 100 to 1000 nM
4 | CC(C)(C)C(=O)OCOP(=O)(OCOC(=O)C(C)(C)C)C(F)(F)c1ccc2sc(C(=O)N[C@H]3CCCC[C@H]4CCC[C@@H](C(=O)N5CC(C(=O)N6CCOCC6)C5)N4C3=O)cc2c1 [Compound 172, (((difluoro(2-(((4S,7S,11aS)-4-(3-(morpholine-4-carbonyl)azetidine-1-carbonyl)-6-oxodecahydro-2H-pyrido[1,2-a]azocin-7-yl)carbamoyl)benzo[b]thiophen-5-yl)methyl)phosphoryl)bis(oxy))bis(methylene) bis(2,2-dimethylpropanoate)] | – | – | < 100 nM | 1000 to 3000 nM | –
5 | CC(C)OC(=O)OCOP(=O)(OCOC(=O)OC(C)C)C(F)(F)c1ccc2ccc(C(=O)N[C@H]3CCCC[C@H]4CC[C@@H](C(=O)N5C[C@@H](C#N)[C@H](c6cc[nH]c(=O)c6)C5)N4C3=O)cc2c1 (single isomer, unassigned) [Compound 1088] | 1000 to 3000 nM | – | – | – | IC50 (pY641-STAT6 in PBMC; [3]): < 100 nM
6 | CC(C)(C)C(=O)SCCOP(=O)(Oc1ccccc1)C(F)(F)c1ccc2sc(C(=O)N[C@H]3CCCC[C@H]4CC[C@@H](C(=O)N5C[C@H](c6ccccc6)[C@@H](C#N)C5)N4C3=O)cc2c1 (single isomer, unassigned) [Compound 133, S-(2-((((2-(((3S,6S,10aS)-3-((3S,4R or 3R,4S)-3-cyano-4-phenylpyrrolidine-1-carbonyl)-5-oxodecahydro-pyrrolo[1,2-a]azocin-6-yl)carbamoyl)benzo[b]thiophen-5-yl)difluoromethyl) (phenoxy)phosphoryl)oxy)ethyl)-2,2-dimethylpropane-thioate] | – | 100 to 1000 nM | > 3000 nM | – | –
7 | CC(C)CC(=O)SCCOP(=O)(OCCSC(=O)CC(C)C)[C@@H](F)c1ccc2sc(C(=O)N[C@H]3CCC[C@H]4CC[C@@H](C(=O)N5CC(c6cccnc6)C5)N4C3=O)cc2c1 [Compound 1089, S,S′-(((((R)-fluoro(2-(((3S,6S,9aS)-5-oxo-3-(3-(pyridin-3-yl)azetidine-1-carbonyl)octahydro-1H-pyrrolo[1,2-a]azepin-6-yl)carbamoyl)benzo [b]thiophen-5-yl)methyl)phosphoryl)bis(oxy))bis(ethane-2,1-diyl)) bis(3-methylbutanethioate] | < 100 nM | – | – | – | IC50 (pY641-STAT6 in PBMC; [3]): 100 to 1000 nM
8 | CCCC(=O)SCCOP(=O)(Cc1ccc2sc(C(=O)N[C@H]3CCCC[C@H]4CC[C@@H](C(=O)N5CC(C#N)C(c6ccccc6)C5)N4C3=O)cc2c1)OCCSC(=O)CCC (single isomer, unassigned) [Compound 125, S,S′-(((((2-(((3S,6S,10aS)-3-((3S,4R or 3R,4S)-3-cyano-4-phenylpyrrolidine-1-carbonyl)-5-oxodecahydropyrrolo[1,2-a]azocin-6-yl)carbamoyl)benzo[b]thiophen-5-yl)methyl)phosphoryl)bis(oxy))bis(ethane-2,1-diyl))dibutanethioate] | – | – | > 3000 nM | 1000 to 3000 nM | –
9 | CCCOC(=O)[C@H](C)NP(=O)(Cc1ccc2ccc(C(=O)N[C@H]3CCCC[C@H]4CC[C@@H](C(=O)N5C[C@H](c6cc[nH]c(=O)c6)CC56CC6)N4C3=O)cc2c1)Oc1ccccc1 (stereo partly drawn) [Compound 402, propyl (((7-(((3S,6S,10aS)-5-oxo-3-((S)-6-(2-oxo-1,2-dihydropyridin-4-yl)-4-azaspiro[2.4]heptane-4-carbonyl)decahydropyrrolo[1,2-a]azocin-6-yl)carbamoyl)naphthalen-2-yl)methyl)(phenoxy)phosphoryl)-L-alaninate] | > 3000 nM | – | – | – | IC50 (pY641-STAT6 in PBMC; STAT6, PBMC, Table 115): 1000 to 3000 nM
10 | S-(2-((((2- (((3S,6S,10aS)-3- ((3S,4R or 3R,4S)-3- cyano-4- phenylpyrrolidine-1- carbonyl)-5- oxodecahydro- pyrrolo[1,2-a] azocin-6- yl)carbamoyl) benzo[b]thiophen- 5-yl)difluoromethyl) (2-(pivaloylthio) ethoxy)phosphoryl) oxy)ethyl) butanethioate [Compound 165] | – | – | 1000 to 3000 nM | 100 to 1000 nM | –
11 | CCCC(=O)SCCOP(=O)(Oc1ccccc1)C(F)(F)c1ccc2sc(C(=O)N[C@H]3CCC[C@H]4CC[C@@H](C(=O)N5CC(c6cccnc6)C5)N4C3=O)cc2c1 (stereo partly drawn) [Compound 136, S-(2-(((difluoro(2-(((3S,6S,9aS)-5-oxo-3-(3-(pyridin-3-yl)azetidine-1-carbonyl)octahydro-1H-pyrrolo[1,2-a]azepin-6-yl)carbamoyl)benzo[b]thiophen-5-yl)methyl) (phenoxy)phosphoryl)oxy)ethyl) butanethioate] | – | 1000 to 3000 nM | – | – | IC50 (pY705-STAT3 in PBMC; pSTAT3, PBMC, Table 1114): < 100 nM
12 | CC(C)OC(=O)[C@H](C)NP(=O)(Oc1ccccc1)C(F)c1ccc2sc(C(=O)N[C@H]3CCCC[C@H]4CC[C@@H](C(=O)N5C[C@H](c6cc[nH]c(=O)c6)[C@@H](C#N)C5)N4C3=O)cc2c1 (single isomer, unassigned) [Compound 198, isopropyl (((2-(((3S,6S,10aS)-3-((3R,4S or 3S,4R)-3-cyano-4-(2-oxo-1,2-dihydropyridin-4-yl)pyrrolidine-1-carbonyl)-5-oxodecahydro-pyrrolo[1,2-a]azocin-6-yl)carbamoyl)benzo[b]thiophen-5-yl)fluoro-methyl) (phenoxy)phosphoryl)-L-alaninate] | – | > 3000 nM | > 3000 nM | – | –
13 | CC(C)(CO)C(=O)SCCOP(=O)(OCCSC(=O)C(C)(C)CO)C(F)(F)c1ccc2sc(C(=O)N[C@H]3CCCC[C@H]4CC[C@@H](C(=O)N5C[C@@H](C#N)[C@H](c6ccccc6)C5)N4C3=O)cc2c1 (single isomer, unassigned) [Compound 200, S,S′-(((((2-(((3S,6S,10a S)-3-((3S,4R or 3R,4S)-3-cyano-4-phenylpyrrolidine-1-carbonyl)-5-oxodecahydro-pyrrolo [1,2-a]azocin-6-yl)carbamoyl)benzo[b]thiophen-5-yl)difluoromethyl)phosphoryl)bis(oxy))bis(ethane-2,1-diyl)) bis(3-hydroxy-2,2-dimethyl-propanethioate)] | – | – | 1000 to 3000 nM | > 3000 nM | –
